The text below walks through data of patent US11292788B2, “IL-17 and IFN-gamma inhibition for the treatment of autoimmune diseases and chronic inflammation” (Immunic AG, priority 2017, dated 2022).

Series [1] can be described thus: Microsomal stability: incubation with human liver microsomes, residual parent compound by HPLC-MS/MS. The class given is in vitro ADME. The note with it: human liver microsomes 0.5 mg/ml, compound 1 μM, pH 7.4, 37° C., up to 60 min; read-out: t1/2 hLM. The procedure: Metabolic stability of compounds of the present invention was determined by incubation with human liver microsomes and subsequent determination of residual amount of the respective compound (“parent compound”) by HPLC-MS/MS.
In order to achieve this, in a final reaction volume of 1000 μl, each compound was incubated at a final concentration of 1 μM with 0.5 mg/ml human liver microsomes (HLM Pool 50 Donors, 20 mg/ml, BD Gentest, #452156, LotNr 88114) in 0.1 M Potassium phosphate buffer at pH 7.4, with a cofactor in form of a NADPH regenerating system (Promega, #V9510) according to the manufacturers' specifications. The final DMSO concentration in each sample was 0.4%. The incubation was performed at 37° C. under shaking conditions (Thermomixer, 1400 rpm) for different time intervals up to 60 min. To stop the reaction, for each time point 200 μl of the reaction were taken out and 200 μl ice-cold acetonitrile was added. Then, the samples were centrifuged (4° C., 14000*g for 15 min). The supernatant was analyzed for residual parent compound concentration and scanned for metabolites using HPLC-MS/MS. By using optimized MS methods for each compound, the peak area under curve for the compound specific signal is determined. The change of the peak areas over the assay time of 60 min resemble the remaining parent compound in % of T0. By these points, a balancing line was set. The half-time, as well as the clearance, can then be calculated on the basis of the slope.

The subject of the next series is IL-17A. Kind of series: Cytokine assay: IL-17A production by human PBMC stimulated with PHA. The class given is cell-based. The settings on record: IC50 class, read-out: IL-17A Inhib. Summed up:
(§1)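 Human donor PBMC (1×10^5 cells/well) were activated with 2 μg/ml PHA and exposed to compounds for 48 h. Supernatant IL-17A, IL-17F and IFN-γ were measured by Luminex or ELISA. Screening used 10, 1, 0.1 and 0.01 μM; IC50 values came from semilogarithmic titrations.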

A further series deals with IL-17F. Kind of series: Cytokine assay: IL-17F production by human PBMC stimulated with PHA. The class given is cell-based. The note with it: IC50 class, read-out: IL-17F Inhib. The method, boiled down:
as §1

The next series deals with INF-γ. The experiment in a line: Cytokine assay: INF-γ production by human PBMC stimulated with PHA. Format: cell-based. The settings on record: IC50 class, read-out: IFN-gamma Inhib. Summed up: as §1

Read-outs that look alike come from different tables or passages of the source. Where only a bound is given, the exact number is not on record here.

As for `CCC(O)Cn1ncc(-c2onc(-c3c(F)cccc3Cl)c2-c2nccs2)c1C(F)(F)F` (racemic) [Example 6, 1-{4-[3-(2-chloro-6-fluorophenyl)-4-(1,3-thiazol-2-yl)-1,2-oxazol-5-yl]-5-(trifluoromethyl)-1H-pyrazol-1-yl}butan-2-ol], the half-life at 1 μM in series [1] fell in the range of 10 to 40 min. Further, the IC50 in the series with IL-17A (Homo sapiens, PBMC) is below 50 nM; in the series on IL-17F (Homo sapiens, PBMC) it was below 50 nM; in the series with INF-γ (Homo sapiens, PBMC), below 50 nM.
For the compound `OC(Cn1ncc(-c2onc(-c3c(F)cccc3Cl)c2-c2nccs2)c1C(F)(F)F)C(F)(F)F` (racemic) [Example 7, 3-{4-[3-(2-chloro-6-fluorophenyl)-4-(1,3-thiazol-2-yl)-1,2-oxazol-5-yl]-5-(trifluoromethyl)-1H-pyrazol-1-yl}-1,1,1-trifluoropropan-2-ol], the half-life at 1 μM in series [1] fell in the range of 10 to 40 min. For the same compound, the IC50 is below 50 nM in the series with IL-17A (Homo sapiens, PBMC); below 50 nM in the series on IL-17F (Homo sapiens, PBMC); below 50 nM with INF-γ (Homo sapiens, PBMC).
Take `CC(C)(O)CCn1ncc(-c2onc(-c3c(F)cccc3Cl)c2-c2nccs2)c1C(F)(F)F` [Example 3, 4-(4-(3-(2-chloro-6-fluorophenyl)-4-(thiazol-2-yl)isoxazol-5-yl)-5-(trifluoromethyl)-1H-pyrazol-1-yl)-2-methylbutan-2-ol]: the half-life at 1 μM in series [1] was above 100 min. Also, the IC50 was below 50 nM with IL-17A (Homo sapiens, PBMC); below 50 nM in the series on IL-17F (Homo sapiens, PBMC); below 50 nM in the series on INF-γ (Homo sapiens, PBMC).
With `C[C@@H](O)Cn1ncc(-c2onc(-c3c(F)cccc3Cl)c2-c2nccs2)c1C(F)(F)F` [Example 4, (2R)-1-(4-(3-(2-chloro-6-fluorophenyl)-4-(thiazol-2-yl)isoxazol-5-yl)-5-(trifluoromethyl)-1H-pyrazol-1-yl)propan-2-ol], in series [1], the half-life at 1 μM fell in the range of 10 to 40 min. Also, the IC50 in the series with IL-17A (Homo sapiens, PBMC) was below 50 nM; in the series with IL-17F (Homo sapiens, PBMC), below 50 nM; in the series with INF-γ (Homo sapiens, PBMC), below 50 nM.
As for `C[C@H](O)Cn1ncc(-c2onc(-c3c(F)cccc3Cl)c2-c2nccs2)c1C(F)(F)F` [Example 5, (2S)-1-(4-(3-(2-chloro-6-fluorophenyl)-4-(thiazol-2-yl)isoxazol-5-yl)-5-(trifluoromethyl)-1H-pyrazol-1-yl)propan-2-ol], in series [1], the half-life at 1 μM lay in the range of 40 to 100 min. The IC50 is below 50 nM in the series with IL-17A (Homo sapiens, PBMC); 50 to 500 nM in the series on IL-17F (Homo sapiens, PBMC); below 50 nM with INF-γ (Homo sapiens, PBMC).
Regarding `CCOC(=O)c1c(-c2c(F)cccc2Cl)noc1-c1cnn(C[C@@H](O)C(F)(F)F)c1C(F)(F)F` [Example 16, ethyl 3-(2-chloro-6-fluorophenyl)-5-{1-[(2R)-3,3,3-trifluoro-2-hydroxypropyl]-5-(trifluoromethyl)-1H-pyrazol-4-yl}-1,2-oxazole-4-carboxylate], the half-life at 1 μM in series [1] is 2 to 9.99 min. Moreover, the IC50 with IL-17A (Homo sapiens, PBMC) is below 50 nM; in the series with IL-17F (Homo sapiens, PBMC), below 50 nM; in the series with INF-γ (Homo sapiens, PBMC), below 50 nM.
Regarding `COC(=O)c1c(-c2ccccc2Cl)noc1-c1cnn([C@H]2C[C@](C)(O)C2)c1C` [Example 18, methyl 3-(2-chlorophenyl)-5-(1-(3-hydroxy-3-methylcyclobutyl)-5-methyl-1H-pyrazol-4-yl)isoxazole-4-carboxylate], in series [1], the half-life at 1 μM is above 100 min. Also, the IC50 is 50 to 500 nM in the series on IL-17A, below 50 nM in the series with IL-17F and below 50 nM in the series with INF-γ.
Regarding `COC(=O)c1c(-c2ccccc2Cl)noc1-c1cnn(CCC(C)(C)O)c1C` [Example 19, methyl 3-(2-chlorophenyl)-5-[1-(3-hydroxy-3-methylbutyl)-5-methyl-1H-pyrazol-4-yl]-1,2-oxazole-4-carboxylate], the half-life at 1 μM in series [1] is above 100 min. The IC50 was below 50 nM in the series with IL-17A (Homo sapiens, PBMC); 50 to 500 nM with IL-17F (Homo sapiens, PBMC); below 50 nM with INF-γ (Homo sapiens, PBMC).
For `COC(=O)c1c(-c2c(F)cccc2Cl)noc1-c1cnn(C[C@H](C)O)c1C(F)(F)F` [Example 23, methyl (S)-3-(2-chloro-6-fluorophenyl)-5-(1-(2-hydroxypropyl)-5-(trifluoromethyl)-1H-pyrazol-4-yl)isoxazole-4-carboxylate], in series [1], the half-life at 1 μM was 10 to 40 min. In addition, the IC50 with IL-17A (Homo sapiens, PBMC) is 50 to 500 nM; in the series on IL-17F (Homo sapiens, PBMC), 50 to 500 nM; in the series with INF-γ (Homo sapiens, PBMC), below 50 nM.
On to `COC(=O)c1c(-c2cccc(OC)c2Cl)noc1-c1cnn(CCC(C)(C)O)c1C` [Example 25, methyl 3-(2-chloro-3-methoxyphenyl)-5-[1-(3-hydroxy-3-methylbutyl)-5-methyl-1H-pyrazol-4-yl]-1,2-oxazole-4-carboxylate], for which the half-life at 1 μM in series [1] is above 100 min. The IC50 is below 50 nM in the series on IL-17A (Homo sapiens, PBMC); below 50 nM in the series with IL-17F (Homo sapiens, PBMC); below 50 nM in the series with INF-γ (Homo sapiens, PBMC).
As for `C[C@@H](O)Cn1ncc(-c2onc(-c3cccc(C(=O)N4CCC4)c3Cl)c2-c2ccncn2)c1C(F)(F)F` [Example 158, (R)-(azetidin-1-yl)(2-chloro-3-(5-(1-(2-hydroxypropyl)-5-(trifluoromethyl)-1H-pyrazol-4-yl)-4-(pyrimidin-4-yl)isoxazol-3-yl)phenyl)methanone], the IC50 in the series on IL-17A (Homo sapiens, PBMC) was in the range of 50 to 500 nM; with IL-17F (Homo sapiens, PBMC), 50 to 500 nM; in the series with INF-γ (Homo sapiens, PBMC), 50 to 500 nM.
As to `C[C@@H](O)Cn1ncc(-c2onc(-c3cccc(C(=O)NC4CC4)c3Cl)c2-c2ccncn2)c1C(F)(F)F` [Example 159, (R)-2-chloro-N-cyclopropyl-3-(5-(1-(2-hydroxypropyl)-5-(trifluoromethyl)-1H-pyrazol-4-yl)-4-(pyrimidin-4-yl)isoxazol-3-yl)benzamide], the IC50 in the series with IL-17A (Homo sapiens, PBMC) lay within 500 to 5000 nM; in the series with IL-17F (Homo sapiens, PBMC), 500 to 5000 nM; in the series with INF-γ (Homo sapiens, PBMC), 50 to 500 nM.
Regarding `COc1c(C(=O)NC2CC2)cccc1-c1noc(-c2cnn(C[C@@H](C)O)c2C(F)(F)F)c1-c1ccncn1` [Example 161, (R)—N-cyclopropyl-3-(5-(1-(2-hydroxypropyl)-5-(trifluoromethyl)-1H-pyrazol-4-yl)-4-(pyrimidin-4-yl)isoxazol-3-yl)-2-methoxybenzamide], the IC50 in the series with IL-17A (Homo sapiens, PBMC) is at least 5000 nM; in the series with IL-17F (Homo sapiens, PBMC), at least 5000 nM; with INF-γ (Homo sapiens, PBMC), 500 to 5000 nM.
As to `COc1c(C(=O)NC(C)C)cccc1-c1noc(-c2cnn(C[C@@H](C)O)c2C(F)(F)F)c1-c1ccncn1` [Example 162, (R)-3-(5-(1-(2-hydroxypropyl)-5-(trifluoromethyl)-1H-pyrazol-4-yl)-4-(pyrimidin-4-yl)isoxazol-3-yl)-N-isopropyl-2-methoxybenzamide], the IC50 was 500 to 5000 nM in the series with IL-17A (Homo sapiens, PBMC); at least 5000 nM in the series on IL-17F (Homo sapiens, PBMC); 50 to 500 nM with INF-γ (Homo sapiens, PBMC).
The corresponding values for `COc1c(C(=O)N2CCC2)cccc1-c1noc(-c2cnn(C[C@@H](C)O)c2C(F)(F)F)c1-c1ccncn1` [Example 163, (R)-(azetidin-1-yl)(3-(5-(1-(2-hydroxypropyl)-5-(trifluoromethyl)-1H-pyrazol-4-yl)-4-(pyrimidin-4-yl)isoxazol-3-yl)-2-methoxyphenyl)methanone] are at least 5000 nM, at least 5000 nM and 500 to 5000 nM.
For `COc1c(C(=O)NC2CCC2)cccc1-c1noc(-c2cnn(C[C@@H](C)O)c2C(F)(F)F)c1-c1ccncn1` [Example 164, (R)—N-cyclobutyl-3-(5-(1-(2-hydroxypropyl)-5-(trifluoromethyl)-1H-pyrazol-4-yl)-4-(pyrimidin-4-yl)isoxazol-3-yl)-2-methoxybenzamide], in that order: 500 to 5000 nM, 500 to 5000 nM and 500 to 5000 nM.
`CCNC(=O)c1cccc(-c2noc(-c3cnn(C[C@@H](C)O)c3C(F)(F)F)c2-c2ccncn2)c1OC` [Example 165, (R)—N-ethyl-3-(5-(1-(2-hydroxypropyl)-5-(trifluoromethyl)-1H-pyrazol-4-yl)-4-(pyrimidin-4-yl)isoxazol-3-yl)-2-methoxybenzamide]: the IC50 was 500 to 5000 nM in the series on IL-17A (Homo sapiens, PBMC); at least 5000 nM in the series with IL-17F (Homo sapiens, PBMC); 500 to 5000 nM with INF-γ (Homo sapiens, PBMC).
As for `C[C@@H](O)Cn1ncc(-c2onc(-c3cccc(C(=O)NC4CCC4)c3)c2-c2ccncn2)c1C(F)(F)F` [Example 166, (R)—N-cyclobutyl-3-(5-(1-(2-hydroxypropyl)-5-(trifluoromethyl)-1H-pyrazol-4-yl)-4-(pyrimidin-4-yl)isoxazol-3-yl)benzamide], the IC50 is 500 to 5000 nM with IL-17A (Homo sapiens, PBMC); at least 5000 nM in the series on IL-17F (Homo sapiens, PBMC); 500 to 5000 nM in the series on INF-γ (Homo sapiens, PBMC).
For the compound `CC(C)NC(=O)c1cccc(-c2noc(-c3cnn(C[C@@H](C)O)c3C(F)(F)F)c2-c2ccncn2)c1` [Example 167, (R)-3-(5-(1-(2-hydroxypropyl)-5-(trifluoromethyl)-1H-pyrazol-4-yl)-4-(pyrimidin-4-yl)isoxazol-3-yl)-N-isopropylbenzamide], the IC50 in the series on IL-17A (Homo sapiens, PBMC) was at least 5000 nM; with IL-17F (Homo sapiens, PBMC), at least 5000 nM; with INF-γ (Homo sapiens, PBMC), 500 to 5000 nM.
